Columns and labels:
HepG2.2.15 cells = test: Cytotoxicity determination in HepG2.2.15 cells; type: cell-based; settings: 50% cytotoxicity
From the text: Before harvesting the supernatants and/or cells to determine the antiviral effect, the HepG2.2.15 cells were examined under the light microscope or by means of biochemical detection methods (for example Alamar Blue stain or Trypan Blue stain) for cytotoxic changes.
Substance-induced cytotoxic or cytostatic changes in the HepG2.2.15 cells were detected, for example, under the light microscope as changes in cell morphology. Such substance-induced changes in the HepG2.2.15 cells compared with untreated cells were visible, for example, as cytolysis, vacuolation or altered cell morphology.
The tolerability of some of the compounds according to the invention was additionally tested on other host cells such as, for example, HeLa cells, primary human peripheral blood cells or transformed cell lines such as H-9 cells.
As a rule, the compounds according to the invention were tolerated up to concentrations of 10 μM (Tox. −50).

[1] = system: hepatitis B virus-producing HepG2.2.15 cells; test: Antiviral test: reduction of HBV DNA in HepG2.2.15 cells (dot-blot hybridization); type: cell-based; settings: HepG2.2.15, 96 h
Method: The antiviral action of the compounds according to the invention was investigated by methods based on those described by M. A. Sells et al., Proc. Natl. Acad. Sci. 84, 1005-1009 (1987) and B. E. Korba et al., Antiviral Research 19, 55-70 (1992).
The antiviral tests were carried out in 96-well microtitre plates. The first vertical row of the plate received only growth medium and HepG2.2.15 cells. It served as virus control.
Stock solutions of the test compounds (50 mM) were initially dissolved in DMSO, and further dilutions were prepared in the HepG2.2.15 growth medium. The compounds according to the invention were usually pipetted in a test concentration of 100 μM (1st test concentration) in each case into the second vertical test row of the microtitre plate and subsequently diluted in twofold steps 2^10 times in growth medium+2% by weight fetal calf serum (volume 25 μl).
Each well of the microtitre plate then contained 225 μl of HepG2.2.15 cell suspension (5×10^4 cells/ml) in growth medium+2% by weight of fetal calf serum.
The test mixture was incubated at 37° C. and 5% CO2 (v/v) for 4 days.
The supernatant was then aspirated off and discarded, and the wells received 225 μl of freshly prepared growth medium. The compounds according to the invention were each added anew as 10-fold concentrated solution in a volume of 25 μl. The mixtures were incubated for a further 4 days.
The supernatants/cells were then harvested and sucked by means of a vacuum onto 96-well dot-blot chambers covered with a nylon membrane (in accordance with the manufacturer's information).
After the supernatants or cells had been transferred to the nylon membrane of the blot apparatus (see above), the supernatants of the HepG2.2.15 cells were denatured (1.5 M NaCl/0.5 N NaOH), neutralized (3M NaCl/0.5M Tris HCl, pH 7.5) and washed (2×SSC). The DNA was then baked onto the membrane by incubating the filters at 120° C. for 2-4 hours.
Detection of the viral DNA from the treated HepG2.2.15 cells on the nylon filters was easily carried out with non-radioactive, digoxigenin-labelled hepatitis B-specific DNA probes, each of which was labelled with digoxigenin, purified and employed for the hybridization in accordance with the manufacturer's information.
The prehybridization and hybridization took place in 5×SSC, 1× blocking reagent, 0.1% by weight N-lauroylsarcosine, 0.02% by weight SDS and 100 μg of herring sperm DNA. The prehybridization took place at 60° C. for 30 minutes, and the specific hybridization with 20 to 40 ng/ml of the digoxigenized, denatured HBV-specific DNA took place at 60° C. for 14 hours. The filters were then washed.
The immunological detection of the digoxigenin-labelled DNA took place in accordance with the manufacturer's information:
The filters were washed and prehybridized in a blocking reagent (in accordance with the manufacturer's information). Hybridization was then carried out with an anti-DIG antibody coupled to alkaline phosphatase for 30 minutes. After a washing step, the substrate of alkaline phosphatase, CSPD, was added, incubated with the filters for 5 minutes, then packed in plastic film and incubated at 37° C. for a further 15 minutes.
The chemiluminescence of the hepatitis B-specific DNA signals was visualized by exposing the filters to an X-ray film (incubation depending on signal strength: 10 minutes to 2 hours).
The half-maximum inhibitory concentration (IC-50, 50% inhibitory concentration) was determined as the concentration at which the hepatitis B-specific band was reduced by the compound according to the invention by 50% compared with an untreated sample.

| Compound | Tox-50 (HepG2.2.15 cells) [μM/l] | IC50 [1] [nM] |
| --- | --- | --- |
| Cc1cc(NC(=O)c2c(C)noc2C(F)(F)F)ccc1F [Example 16] | >100 | 750 |
| CCc1onc(C)c1C(=O)Nc1ccc(F)c(Cl)c1 [Example 12] | >100 | 500 |
| CCCc1onc(C)c1C(=O)Nc1cccc(C)c1 [Example 21] | >100 | 1000 |
| Cc1oncc1C(=O)Nc1ccc(C(F)(F)F)cc1 [Leflunamide, N-(4-trifluoromethylphenyl)-5-methylisoxazole-4-carboxamide, reference compound] | 70 | > 70000 |
| Cc1cccc(NC(=S)c2c(C)noc2C)c1 [Example 29] | >100 | 4000 |
| Cc1cc(NC(=O)c2c(C)noc2C)ccc1F [Example 2, N-(4-Fluoro-3-methylphenyl)-3,5-dimethylisoxazole-4-carboxamide] | >100 | 200 |

— patent US20030187028A1, “Medicament for viral diseases” (priority 2000, published 2003)
